pIC50: −log10 of the molar value. Read-outs that look alike come from different tables or passages of the source.
How the values were obtained:
bacteria = conditions: concentration of 10 uM; cited from earlier work
HT29 cell line [1] = experiment: Dark toxicity, MTT assay; format: cell-based; conditions: Homo sapiens, HT-29; HT29; 24 h under dark, MTT; read-out: IC50 DK
Protocol: (§1) Cell lines and culture conditions: A549, HT29, MCF-7, MDA-MB-231 cell lines were maintained in RPMI1640 supplemented with fetal bovine serum (10%) and penicillin-streptomycin solution (1%), and WI38 cells were maintained in DMEM supplemented with fetal bovine serum (10%) and penicillin-streptomycin solution (1%). Approximately 1×10^4 (for A549, HT29, MCF-7, MDA-MB-231) or 1.5×10^4 (for WI38) cells per well were seeded in 96-well plate and incubated overnight light at 37° C. in a humidified atmosphere with 5% CO2.
Dark toxicity: Cells were incubated with different concentrations of photosensitive drug for 24 h in dark, and the cell viabilities were determined by MTT assay

E. coli = conditions: 10 uM, 30 min incubation, 24 J/cm^2; cited from earlier work
HT29 cells = experiment: Intracellular ROS generation, DCFH-DA probe, flow cytometry; format: cell-based; conditions: HT29, 0.5 uM, light irradiation; order 14≈23>8>18>15>24>>16>20>17≈19≈22>21>>MB
From the text: In order to further mimic the biological environment, we measured the intracellular reactive oxygen species (ROS) generation efficiency of these phenothiazine-pyridine compounds by flow cytometry. We employed HT29 cell line as cell model, and 2,7-dichlorofluorescin diacetate (DCFH-DA) as the intracellular ROS indicator, to determine the fluorescence intensity of 2,7-dichlorofluorescin (DCF), which was oxidized from DCFH-DA by ROS. The experiments were repeated for three times using DCFH-DA as control. For comparison, methylene blue was used as positive control. The data were analyzed by GraphPad Prism 6, the drug concentrations are all at 0.5 uM. […] In addition, the intracellular ROS generation efficiency is different from that measured in organic solvent, which may be attributed to the different cellular uptake amount for various compounds and the generation of some other ROS species other than ^1O2 in cells ([…] mechanism).

HT29 cell line [2] = experiment: Photocytotoxicity (PDT), MTT assay; format: cell-based; conditions: Homo sapiens, HT-29, light or radiation study; HT29; 1 h incubation, 630 nm LED light 30 s, 3.2 J/cm^2, 24 h, MTT; read-out: IC50 PDT
Protocol: as §1
Photocytotoxicity: Cells were incubated with different concentrations of photosensitive drug for 1 h in the dark, then the medium in the well was sucked by a syringe, and washed by PBS. Then a solution of new medium was added, and illuminated by light. After irradiation, the cells were incubated under dark at 37° C. for another 24 h, and the cell viabilities were determined by MTT assay.

HT29 cell line [3] = conditions: 664 laser and 3 J/cm^2 light dose (2008); read-out: IC50 PDT, Stanley B. Brown reported value; cited from earlier work
S. aureus = conditions: 10 uM, 30 min drug-incubation, 60 J/cm^2; cited from earlier work

Which results are given for `CN(C)c1ccc2nc3ccc(=[N+](C)C)cc-3sc2c1` [MB, methylene blue]?
dark toxicity (bacteria): obvious dark toxicity; pIC50 (HT29 cell line [1]): < 5.00; log 10-reduction (E. coli): 0.5 log 10-reduction; intracellular ROS generation efficiency (HT29 cells): almost no ROS generation; pIC50 (HT29 cell line [2]): 5.04; pIC50 (HT29 cell line [3]): 4.05

Which results are given for `CCCCN(CCCC)c1ccc2nc3ccc(=[N+](CCCC)CCCC)cc-3sc2c1.[Br-]` [PPA904]?
dark toxicity (bacteria): obvious dark toxicity; log 10-reduction (S. aureus): 4 log 10-reduction; log 10-reduction (E. coli): 3 log 10-reduction

Source: patent US10189862B2, “Phenothiazine-pyridine compounds and uses thereof” (The Chinese University of Hong Kong, priority 2016, dated 2019)
